US4921858A, “7-deazaguanines as immunomodulators” (Warner-Lambert Company, priority 1989, dated 1990)
pIC50: −log10 of the molar value.

Tests used:
[1] = test system: rejection of skin graft; details: dogs; cited from earlier work
[2] = test system: T-cells; assay: HTBA-1 T-cell cytotoxicity in the presence of 2'-deoxyguanosine; type: cell-based
[3] = test system: B-cell; assay: HTBA-1 B-cell toxicity in the presence of 2'-deoxyguanosine; type: cell-based; details: in the presence of the same amount of 2'-deoxyguanosine
[4] = target: T1, purine nucleoside phosphorylase (PNP-4) (Homo sapiens, UniProt P00491); assay: PNP-4 enzyme assay, radiochemical, formation of [14C]hypoxanthine from [14C]inosine; type: biochemical; details: human erythrocyte enzyme
T1 construct: using human erythrocyte as the enzyme source; from tissue; host or cells: human erythrocyte
T1 sequence (P00491 1-289): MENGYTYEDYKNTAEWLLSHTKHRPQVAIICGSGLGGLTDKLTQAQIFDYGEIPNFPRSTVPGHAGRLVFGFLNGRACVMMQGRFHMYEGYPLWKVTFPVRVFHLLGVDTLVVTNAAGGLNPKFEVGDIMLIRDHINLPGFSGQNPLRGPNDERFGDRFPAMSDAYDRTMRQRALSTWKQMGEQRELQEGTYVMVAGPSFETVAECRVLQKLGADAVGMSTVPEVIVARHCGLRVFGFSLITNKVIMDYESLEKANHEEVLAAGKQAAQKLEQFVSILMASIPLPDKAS
Method: In the purine nucleoside phosphorylase (PNP-4) enzyme assay, an IC50 is achieved at a dose of 1.0 micromoles on a selected compound of the present invention. PNP-4 activity for the compound of formula I is measured radiochemically by measuring the formation of [^14 --C]hypoxanthine from [^14 --C]inosine [Biomedicine, 33, 39 (1980)] using human erythrocyte as the enzyme source.

pIC50 [4]	SMILES	inhibiting rejection of skin graft [1]	pIC50 ([2]; T-cell, + 10 μM 2'-deoxyguanosine, read-out: HTBA-1 T-Cell + 10 μM 2'-d Gua, IC50)	selective cytotoxicity for T-cells ([2]; in the presence of 2'-deoxyguanosine, at a similar concentration range)	toxicity to B-cell [3]
	Nc1nc2c(nc(N)n2[C@@H]2O[C@H](CO)[C@@H](O)[C@H]2O)c(=O)[nH]1 [8-Aminoguanosine]	efficacious for inhibiting rejection of skin graft in dogs			
6.00	Nc1nc2c(ccn2Cc2cccs2)c(=O)[nH]1 [Example 2, 2-Amino-7-(2-thienylmethyl)-4-pyrrolo[2,3-d]pyrimidone]		5.64	selectively cytotoxic for T-cells	nontoxic to B-cell
